The text below walks through data of US8691852B2, “Amino nicotinic and isonicotinic acid derivatives as DHODH inhibitors” (Amirall, S.A., priority 2006, dated 2014).

The structures appear in SMILES notation.

One may read the IC50 as the concentration that inhibits the measured activity by half.

The test system of the first assay is HIV replication.
Assay: not given
The following applies: at concentration that can be obtained with conventional dosing; cited from earlier work.
For `Cc1oncc1C(=O)Nc1ccc(C(F)(F)F)cc1` [Leflunomide], the “reduces HIV replication” value is “about 75%”.

The target in another assay is human DHODH (Homo sapiens (Human), UniProt Q02127). As to the kind of experiment: Inhibition of human DHODH activity assay (DCIP chromogen reduction). As to conditions: read-out: hDHODH IC50; human enzyme extract, 200 μM CoQD, 100 μM L-DHO, 120 μM DCIP, 10 min room temperature, absorbance 600 nm.
Sequence of human DHODH (Q02127 whole entry): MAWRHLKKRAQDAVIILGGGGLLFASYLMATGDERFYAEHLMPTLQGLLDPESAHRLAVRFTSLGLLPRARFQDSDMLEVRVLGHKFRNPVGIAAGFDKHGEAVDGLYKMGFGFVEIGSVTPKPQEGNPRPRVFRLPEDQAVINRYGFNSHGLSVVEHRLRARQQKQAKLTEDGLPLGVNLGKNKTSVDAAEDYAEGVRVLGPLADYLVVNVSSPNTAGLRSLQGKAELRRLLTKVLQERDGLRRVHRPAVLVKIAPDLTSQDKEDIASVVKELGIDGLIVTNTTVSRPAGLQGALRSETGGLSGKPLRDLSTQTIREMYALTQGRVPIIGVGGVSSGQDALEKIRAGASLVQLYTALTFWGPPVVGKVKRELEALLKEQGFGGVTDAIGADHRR
Method: DHODH activity and its inhibition were studied using a chromogen reduction assay with DCIP (2,6-dichlorophenol-indophenol).
Enzyme extracts (8 μl, ˜1.5 μg of human protein) were incubated in 96-well plates. The assay mixture (200 μl) contained 200 μM CoQD, 100 μM L-DHO, 120 μM DCIP in the assay buffer (100 mM HEPES pH 8.0, 150 mM NaCl, 10% Glicerol, 0.05% Triton X-100) and 2 μl of test compound. The compounds were dissolved in DMSO at a stock concentration of 1 mM, and tested at different concentrations varying from 10 μM to 1 μM to calculate an IC50 (concentration of inhibitor required for 50% of inhibition).
The reaction was initiated by adding the enzyme and then incubated for 10 min at room temperature before measuring DCIP reduction by counting a decrease in absorbance at 600 nm using standard instrumentation (Spectramax).
All reactions were carried out in duplicate and graphs, determining IC50 values for each compound, were plotted using the ABase software.
On to `CCOc1cccc(-c2ccc(Nc3ncccc3C(=O)O)c(F)c2)c1` [Example 2, 2-(3′-Ethoxy-3-fluorobiphenyl-4-ylamino)nicotinic acid], for which the IC50 amounted to 0.2 µM.
On the same count and under the same terms, in the case of `COc1cccc(-c2cc(F)c(Nc3ncccc3C(=O)O)cc2F)c1` [Example 6, 2-(2,5-Difluoro-3′-methoxybiphenyl-4-ylamino)nicotinic acid] it was 0.088 µM.
On the same count and under the same terms, in the case of `COc1cccc(-c2ccc(Nc3ncccc3C(=O)O)c(Cl)c2)c1` [Example 13, 2-(3-Chloro-3′-methoxybiphenyl-4-ylamino)nicotinic acid] it was 0.15 µM.
The same measure, in the same setting: in the case of `O=C(O)c1cccnc1Nc1c(F)cc(-c2cccc(OC3CCC3)c2)cc1F` [Example 17, 2-(3′-Cyclobutoxy-3,5-difluorobiphenyl-4-ylamino)nicotinic acid] it was 0.09 µM; in that of `CCOc1cccc(-c2cc(F)c(Nc3ncccc3C(=O)O)c(F)c2)c1` [Example 19, 2-(3′-Ethoxy-3,5-difluorobiphenyl-4-ylamino)nicotinic acid], 0.019 µM.
Turning to `CCOc1cccc(-c2ccc(Nc3cnccc3C(=O)O)c(F)c2)c1` [Example 21, Lithium 3-(3′-ethoxy-3-fluorobiphenyl-4-ylamino)isonicotinate], the IC50 worked out at 0.019 µM.
Same read-out and setting: in the case of `COc1cccc(-c2ccc(Nc3cnccc3C(=O)O)c(OC(F)(F)F)c2)c1` [Example 23, Lithium 3-(3′-methoxy-3-(trifluoromethoxy)biphenyl-4-ylamino)isonicotinate] it was 0.014 µM; in that of `O=C(O)c1ccncc1Nc1ccc(-c2cccc(OC(F)(F)F)c2)cc1F` [Example 24, Lithium 3-(3-fluoro-3′-(trifluoromethoxy)biphenyl-4-ylamino)isonicotinate], 0.2 µM.
On the same count and under the same terms, with `Cc1cnc(Nc2ccc(-c3cccc(OC(F)(F)F)c3)cc2F)c(C(=O)O)c1` [Example 33, 2-(3-Fluoro-3′-(trifluoromethoxy)biphenyl-4-ylamino)-5-methylnicotinic acid] the figure was 0.11 µM; with `COc1cccc(-c2ccc(Nc3ncc(C4CC4)cc3C(=O)O)c(F)c2)c1` [Example 34, 5-Cyclopropyl-2-(3-fluoro-3′-methoxybiphenyl-4-ylamino)nicotinic acid], 0.033 µM; with `COc1cccc(-c2cc(F)c(Nc3ncccc3C(=O)O)cc2C)c1` [Example 37, 2-(5-Fluoro-3′-methoxy-2-methylbiphenyl-4-ylamino)nicotinic acid], 0.099 µM.
As to `CCc1cnc(Nc2c(F)cc(-c3cccc(OC)c3)cc2F)c(C(=O)O)c1` [Example 40, 2-(3,5-difluoro-3′-methoxybiphenyl-4-ylamino)-5-ethylnicotinic acid], the IC50 worked out at 0.012 µM.
Consider `CCOc1cccc(-c2cc(F)c(Nc3ncc(C4CC4)cc3C(=O)O)cc2F)c1` [Example 42, 5-cyclopropyl-2-(3′-ethoxy-2,5-difluorobiphenyl-4-ylamino)nicotinic acid], for which the IC50 came out at 0.023 µM.
Regarding `COc1cccc(-c2cc(F)c(Nc3ncccc3C(=O)O)c(F)c2)c1F` [Example 45, 2-(2′,3,5-trifluoro-3′-methoxybiphenyl-4-ylamino)nicotinic acid], the IC50 came to 0.053 µM.
With `O=C(O)c1cccnc1Nc1c(F)cc(-c2cccc(OC3CC3)c2)cc1F` [Example 47, 2-(3′-cyclopropoxy-3,5-difluorobiphenyl-4-ylamino)nicotinic acid], the IC50 amounted to 0.017 µM.
Same read-out and setting: in the case of `Cc1c(-c2ccccc2)cc(F)c(Nc2ncccc2C(=O)O)c1F` [Example 48, 2-(3,5-difluoro-2-methylbiphenyl-4-ylamino)nicotinic acid] it was 0.005 µM; in that of `O=C(O)c1cc(C2CC2)cnc1Nc1c(F)cc(-c2cccc(OC3CC3)c2)cc1F` [Example 50, 2-(3′-cyclopropoxy-3,5-difluorobiphenyl-4-ylamino)-5-cyclopropylnicotinic acid], 0.006 µM.
In the case of `O=C(O)c1cc(C2CC2)cnc1Nc1c(F)cc(-c2cccc(OC(F)(F)F)c2)cc1F` [Example 52, 5-cyclopropyl-2-(3,5-difluoro-3′-(trifluoromethoxy)biphenyl-4-ylamino)nicotinic acid], the IC50 came to 0.004 µM.
On to `O=C(O)c1cc(C2CC2)cnc1Nc1c(F)cc(-c2ccccc2Cl)cc1F` [Example 54, 2-(2′-chloro-3,5-difluorobiphenyl-4-ylamino)-5-cyclopropylnicotinic acid], for which the IC50 was determined as 0.005 µM.
The same measure, in the same setting: in the case of `Cc1c(-c2cccc(OC(F)(F)F)c2)cc(F)c(Nc2ncccc2C(=O)O)c1F` [Example 56, 2-(3,5-difluoro-2-methyl-3′-(trifluoromethoxy)biphenyl-4-ylamino)nicotinic acid] it was 0.006 µM.
Same read-out and setting: with `Cc1c(-c2ccccc2Cl)cc(F)c(Nc2ncccc2C(=O)O)c1F` [Example 57, 2-(2′-chloro-3,5-difluoro-2-methylbiphenyl-4-ylamino)nicotinic acid] the figure was 0.004 µM; with `O=C(O)c1cc(Cl)cnc1Nc1c(F)cc(-c2ccccc2)cc1F` [Example 58, 5-chloro-2-(3,5-difluorobiphenyl-4-ylamino)nicotinic acid], 0.008 µM.
With `COc1cccc(-c2c(F)c(F)c(Nc3ncccc3C(=O)O)c(F)c2F)c1` [Example 60, 2-(2,3,5,6-tetrafluoro-3′-methoxybiphenyl-4-ylamino)nicotinic acid], the IC50 worked out at 0.003 µM.
`Cc1ccccc1-c1cc(F)c(Nc2ncccc2C(=O)O)c(F)c1` [Example 61, 2-(3,5-difluoro-2′-methylbiphenyl-4-ylamino)nicotinic acid]: the IC50 is 0.011 µM.
